The assay has as its target GST-Xa-hAAK1 (Homo sapiens (Human), UniProt Q2M2I8). Kind of assay: biochemical. How it is done:
The assays were performed in U-bottom 384-well plates. […] The reactions were initiated by the combination of bacterially expressed, GST-Xa-hAAK1 with substrates and test compounds. The reactions were incubated at room temperature for 3 hours and terminated by adding 60 μl of 35 mM EDTA buffer to each sample. The reactions were analyzed on the Caliper LabChip 3000 (Caliper, Hopkinton, Mass.) by electrophoretic separation of the fluorescent substrate and phosphorylated product. […] Compounds were dissolved at 10 mM in dimethylsulfoxide (DMSO) and evaluated at eleven concentrations. IC50 values were derived by non-linear regression analysis.

The mark [1] stands for this setting: ATP 22 μM, GST-Xa-hAAK1 3.5 nM, room temperature for 3 hours, Caliper LabChip 3000, read-out: AAK1 IC50.

Read-outs that look alike come from different tables or passages of the source.

Sequence of GST-Xa-hAAK1 (Q2M2I8 whole entry): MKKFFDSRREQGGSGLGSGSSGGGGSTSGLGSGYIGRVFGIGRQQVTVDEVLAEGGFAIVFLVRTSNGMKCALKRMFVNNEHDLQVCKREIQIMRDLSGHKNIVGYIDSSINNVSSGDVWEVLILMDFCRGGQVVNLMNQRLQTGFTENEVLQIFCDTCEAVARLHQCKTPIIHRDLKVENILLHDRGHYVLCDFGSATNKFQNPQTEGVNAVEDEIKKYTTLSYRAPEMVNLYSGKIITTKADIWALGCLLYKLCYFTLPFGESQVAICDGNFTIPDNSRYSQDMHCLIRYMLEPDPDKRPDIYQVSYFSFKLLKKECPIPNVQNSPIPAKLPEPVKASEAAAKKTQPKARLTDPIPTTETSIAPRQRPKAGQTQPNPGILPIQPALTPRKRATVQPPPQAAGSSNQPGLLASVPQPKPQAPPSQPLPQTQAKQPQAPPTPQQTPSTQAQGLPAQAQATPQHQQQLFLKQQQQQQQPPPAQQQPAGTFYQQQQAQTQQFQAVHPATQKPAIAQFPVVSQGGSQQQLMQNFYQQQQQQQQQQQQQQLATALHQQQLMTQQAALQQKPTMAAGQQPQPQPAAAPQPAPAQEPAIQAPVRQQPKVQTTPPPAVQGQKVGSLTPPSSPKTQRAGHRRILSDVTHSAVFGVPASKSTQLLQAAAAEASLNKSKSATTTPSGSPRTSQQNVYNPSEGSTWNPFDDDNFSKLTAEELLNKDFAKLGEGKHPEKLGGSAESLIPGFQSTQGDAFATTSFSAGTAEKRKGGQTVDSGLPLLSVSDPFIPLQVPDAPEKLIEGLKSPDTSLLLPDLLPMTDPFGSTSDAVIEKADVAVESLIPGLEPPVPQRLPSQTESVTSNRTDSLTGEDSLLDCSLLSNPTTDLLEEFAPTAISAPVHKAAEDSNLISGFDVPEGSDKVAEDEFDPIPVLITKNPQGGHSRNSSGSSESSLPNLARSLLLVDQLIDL

Consider `COc1cc(-c2ccc3[nH]c([C@H](N)CC(C)C)nc3c2)ccn1` [Example 13, (R)-1-(5-(2-methoxypyridin-4-yl)-1H-benzo[d]imidazol-2-yl)-3-methylbutan-1-amine], for which the IC50 (read-out: AAK1 IC50) is 0.171 µM.

As to `CCn1c([C@H](N)CC(C)C)nc2ccc(-c3ccncc3)cc21` [Example 33, (R)-1-(1-ethyl-6-(pyridin-4-yl)-1H-benzo[d]imidazol-2-yl)-3-methylbutan-1-amine], the IC50 stood at 0.108 µM.

Regarding `CC(C(N)c1nc2ccc(-c3ccncc3)cc2[nH]1)C(F)(F)F` (single isomer, unassigned) [Example 53, 3,3,3-trifluoro-2-methyl-1-(6-(pyridin-4-yl)-1H-benzo[d]imidazol-2-yl)propan-1-amine], the IC50 under setting [1] stood at 0.521 µM.

Regarding `COc1cc2[nH]c([C@H](N)C3CCCC3)nc2cc1-c1cnco1` [Example 68, (R)-cyclopentyl (6-methoxy-5-(oxazol-5-yl)-1H-benzo[d]imidazol-2-yl) methanamine], the IC50 was 0.05 µM.

As for `CC(C)C[C@H](N)c1nc2cc(-c3cnco3)ccc2[nH]1` [Example 5, (S)-3-methyl-1-(5-(oxazol-5-yl)-1H-benzo[d]imidazol-2-yl)butan-1-amine], under setting [1], the IC50 stood at 0.093 µM.

Regarding `CNc1cc(-c2ccc3[nH]c([C@@H](CC(C)C)NC)nc3c2)ccn1` [Example 61, (R)-N-methyl-4-(2-(3-methyl-1-(methylamino)butyl)-1H-benzo[d]imidazol-5-yl) pyridin-2-amine], under setting [1], the IC50 was 0.008 µM.

On to `NC(CC(C(F)(F)F)C(F)(F)F)c1nc2cc(-c3ccncc3)ccc2o1` (centres unmarked) [Example 91, 4,4,4-trifluoro-1-(5-(pyridin-4-yl)benzo[d]oxazol-2-yl)-3-(trifluoromethyl)butan-1-amine], for which the IC50 under setting [1] was found to be 0.391 µM.

As for `CC(C)(C)OCc1nc2ccc(-c3ccncc3)cc2[nH]1` [Example 55, 2-(tert-butoxymethyl)-6-(pyridin-4-yl)-1H-benzo[d]imidazole], the IC50 worked out at 1.79 µM.

With `COc1cc2[nH]c([C@H](N)C3CCCC3)nc2cc1-c1ccncc1` [Example 82, (R)-cyclopentyl(6-methoxy-5-(pyridin-4-yl)-1H-benzo[d]imidazol-2-yl)methanamine], the half-maximal inhibitory concentration (IC50) was found to be 1.8 µM.

`CN[C@H](CC(C)C)c1nc2cc(-c3ccncc3)ccc2[nH]1` [Example 62, N,3-dimethyl-1-(5-(pyridin-4-yl)-1H-benzo[d]imidazol-2-yl) butan-1-amine]: the IC50 was determined as 0.012 µM.

Regarding `CC(C)C[C@@H](N)c1nc2cc(-c3cc(F)nc(F)c3)ccc2[nH]1` [Example 17, (R)-1-(5-(2,6-difluoropyridin-4-yl)-1H-benzo[d]imidazol-2-yl)-3-methylbutan-1-amine], the IC50 under setting [1] worked out at 3.94 µM.

Turning to `N[C@H](CC1CC1)c1nc2cc(-c3ccncc3)ccc2[nH]1` [Example 70, (R)-2-cyclopropyl-1-(5-(pyridin-4-yl)-1H-benzo[d]imidazol-2-yl) ethanamine], the IC50 stood at 0.061 µM.

As for `COc1cc(-c2ccc3[nH]c(CCC(C)C)nc3c2)ccn1` [Example 57, 2-isopentyl-5-(2-methoxypyridin-4-yl)-1H-benzo[d]imidazole], under setting [1], the IC50 was 1.55 µM.

Turning to `CC(C)CC(N)c1nc2cc(-c3ccncc3)ccc2o1` (centres unmarked) [Example 83, 3-methyl-1-(5-(pyridin-4-yl)benzo[d]oxazol-2-yl)butan-1-amine], the IC50 under setting [1] was 0.071 µM.

In the case of `COc1cc2nc([C@H](N)CC(C)C)[nH]c2cc1-c1ccncc1` [Example 47, (R)-1-(5-methoxy-6-(pyridin-4-yl)-1H-benzo[d]imidazol-2-yl)-3-methylbutan-1-amine], the IC50 turned out to be 0.487 µM.

Consider `CNC(CC(C)C)c1nc2cc(-c3ccncc3)c(OC)cc2[nH]1` (centres unmarked) [Example 73, 1-(6-methoxy-5-(pyridin-4-yl)-1H-benzo[d]imidazol-2-yl)-N,3-dimethylbutan-1-amine], for which the IC50 is 0.18 µM.

Regarding `CC(C)C[C@@H](N)c1nc2cc(-c3ccnc(C#N)c3)ccc2[nH]1` [Example 15, (R)-4-(2-(1-amino-3-methylbutyl)-1H-benzo[d]imidazol-5-yl)picolinonitrile], the IC50 under setting [1] amounted to 0.289 µM.

Consider `CCn1c([C@H](N)CC(C)C)nc2ccc(-c3cnco3)cc21` [Example 32, (R)-1-(1-ethyl-6-(oxazol-5-yl)-1H-benzo[d]imidazol-2-yl)-3-methylbutan-1-amine], for which the IC50 under setting [1] was determined as 0.45 µM.

For the compound `CC(C)C[C@H](N)c1nc2ccc(-c3ccncc3)cc2[nH]1` [Example 2, (S)-3-methyl-1-(6-(pyridin-4-yl)-1H-benzo[d]imidazol-2-yl)butan-1-amine], the half-inhibitory concentration (IC50) under setting [1] turned out to be 0.053 µM.

As for `CC(C)CC(N)c1nc2ccc(-c3ccncc3)cc2o1` (centres unmarked) [Example 84, 3-methyl-1-(6-(pyridin-4-yl)benzo[d]oxazol-2-yl)butan-1-amine], the IC50 under setting [1] was determined as 0.438 µM.

Turning to `CC(C)CCc1nc2ccc(-c3ccncc3)cc2o1` [Example 85, 2-isopentyl-6-(pyridin-4-yl)benzo[d]oxazole], under setting [1], the IC50 came out at 0.833 µM.

In the case of `CC(C)C[C@@H](N)c1nc2cc(-c3ccncc3)c(F)cc2[nH]1` [Example 30, (R)-1-(6-fluoro-5-(pyridin-4-yl)-1H-benzo[d]imidazol-2-yl)-3-methylbutan-1-amine], the IC50 under setting [1] worked out at 0.088 µM.

For the compound `COc1cnccc1-c1cc(OC)c2[nH]c([C@H](N)CC(C)C)nc2c1` [Example 23, (R)-1-(7-methoxy-5-(3-methoxypyridin-4-yl)-1H-benzo[d]imidazol-2-yl)-3-methylbutan-1-amine], under setting [1], the IC50 turned out to be 0.553 µM.

In the case of `CC(C)CCc1nc2ccc(-c3ccncc3)cc2[nH]1` [Example 106, 2-isopentyl-6-(pyridin-4-yl)-1H-benzo[d]imidazole], under setting [1], the concentration for half-maximal inhibition (IC50) is 0.115 µM.

For the compound `COc1cc2[nH]c(C(C)(N)CC(C)C)nc2cc1-c1cnco1` (centres unmarked) [Example 108, 2-(6-methoxy-5-(oxazol-5-yl)-1H-benzo[d]imidazol-2-yl)-4-methylpentan-2-amine], the IC50 under setting [1] worked out at 0.06 µM.

Regarding `CC(C)C[C@@H](N)c1nc2cc(-c3ccnc(N)c3)ccc2[nH]1` [Example 18, (R)-4-(2-(1-amino-3-methylbutyl)-1H-benzo[d]imidazol-5-yl)pyridin-2-amine], the IC50 under setting [1] came to 0.019 µM.

Broadly, the IC50 is the concentration needed to halve the response being measured.

Source of the values: patent US10035777B2, “Heterocyclic kinase inhibitors” (priority 2014, dated 2018).
